Laboratory results taken from article PMC2364081, “Antagonists of retinoic acid receptors (RARs) are potent growth inhibitors of prostate carcinoma cells” (British Journal of Cancer, 2001).

What was measured:
HL60 cells [1] = experiment: ATRA-induced differentiation of HL60 cells to neutrophils (nitroblue tetrazolium reduction); format: cell-based, human; settings: antagonist at 100 nM added with 100 nM ATRA
Text: (§1) Prostate cancer is one of the most common cancers in European and American males and has a high mortality rate (Landis et al, 1998; Rosenthal, 1998). Early disease is managed conservatively in Europe although in selected patients surgery is curative. In advanced disease, androgen ablation can produce symptomatic improvement, but the tumour often re-emerges in an androgen- independent and incurable form. One proposed treatment for androgen-independent prostate carcinoma is differentiation ther- apy, in which agents such as all-trans-retinoic acid (ATRA), 9-cis- retinoic acid and 1, 25-dihydroxyvitamin D3 (D3 ) are used to induce growth arrest, differentiation and sometimes apoptosis of the tumour cells (Liang et al, 1999; de Vos et al, 1997; Skowronski et al, 1994; Hedlund et al, 1997). ATRA and synthetic analogues exert their biological effects by binding to two families of retinoid receptors, […]. These are ligand-dependent transcription factors of the steroid/thyroid hormone nuclear receptor superfamily (Chambon 1994; Boehm et al, 1995). Activated RARs bind to retinoic acid-responsive elements (RAREs) in the promoters of genes and thus regulate gene expression. They also antagonize the activity of the tran- scription factor AP1 and thereby down-regulate the expression of some AP1-activated genes (Nagpal et al, 1995). […]

LNCaP ITS+ cells = experiment: Plate colony formation (clonal proliferation) assay, serum-free (ITS+)-grown LNCaP; format: cell-based, human; settings: LNCaP, serum-free (ITS+), 14 days
Text: (§2) Prostate cancer is one of the most common cancers in European and American males and has a high mortality rate (Landis et al, 1998; Rosenthal, 1998). Early disease is managed conservatively in Europe although in selected patients surgery is curative. In advanced disease, androgen ablation can produce symptomatic improvement, but the tumour often re-emerges in an androgen- independent and incurable form. One proposed treatment for androgen-independent prostate carcinoma is differentiation ther- apy, in which agents such as all-trans-retinoic acid (ATRA), 9-cis- retinoic acid and 1, 25-dihydroxyvitamin D3 (D3 ) are used to induce growth arrest, differentiation and sometimes apoptosis of the tumour cells (Liang et al, 1999; de Vos et al, 1997; Skowronski et al, 1994; Hedlund et al, 1997). ATRA and synthetic analogues exert their biological effects by binding to two families of retinoid receptors, […]. These are ligand-dependent transcription factors of the steroid/thyroid hormone nuclear receptor superfamily (Chambon 1994; Boehm et al, 1995). Activated RARs bind to retinoic acid-responsive elements (RAREs) in the promoters of genes and thus regulate gene expression. They also antagonize the activity of the tran- scription factor AP1 and thereby down-regulate the expression of some AP1-activated genes (Nagpal et al, 1995). One approach to unravelling the contributions of RAR sub-types to these actions has been the development of synthetic retinoids with selective activities at individual RARs and RXRs. For example, the diaryl- acetylenic retinoids allow separation of transactivation and AP1 antagonism functions at RAR (Nagpal et al, 1995). Recently, compounds that are selective for particular RAR sub-types have been synthesized: these include both agonists and antagonists (Chandraratna, 1995; Teng et al, 1999; Johnson et al, 1999). The functional selectivity of these compounds may open the way to achieving differentiation or apoptosis of tumour cells with minimal systemic side effects (Chandraratna, 1995). Cell lines that are commonly used in the evaluation of investiga- tional agents for prostate cancer include LNCaP, DU-145 and PC- 3. […] These lines are relatively insensitive to growth inhibition and induction of apoptosis by ATRA and by synthetic agonists. […] Fenretinide (4HPR) induces apoptosis of LNCaP and of PC-3 cells at 1-5 M and 25 µM, respectively (Pienta et al, 1993; Heish and Wu, 1997). Pfahl and colleagues examined the growth inhibitory effects of a panel of receptor-selective retinoids against DU145 and PC-3 cells and achieved complete growth inhibition and induction of apoptosis between 1 M and 10 M (Lu et al, 1999). […] Antagonists of retinoic acid receptors (RARs) are potent growth inhibitors of prostate carcinoma cells LA Hammond1 , CH Van Krinks2 , J Durham2 , SE Tomkins2 , RD Burnett3 , EL Jones1 , RAS Chandraratna3 and G Brown2 Divisions of 1 Cancer Studies and of 2 Immunity and Infection, University of Birmingham Medical School, Edgbaston, Birmingham B15 2TT, UK and 3 Retinoid Research, Allergan Inc., Irvine, California, USA Summary Novel synthetic antagonists of retinoic acid receptors (RARs) have been developed. To avoid interference by serum retinoids when testing these compounds, we established serum-free grown sub-lines (>3 years) of the prostate carcinoma lines LNCaP, PC3 and DU145. […] A component(s) of serum and of LNCaP-conditioned medium diminishes the activity of antagonists: this factor is not the most likely candidates IGF-1 and EGF. In vitro studies of RAR antagonists together with data from RAR-null mice lead to the hypothesis that RAR-regulated gene transcription is necessary for the survival and maintenance of prostate epithelium. […]

DU145 ITS+ cells = experiment: Plate colony formation assay, serum-free (ITS+)-grown DU145; format: cell-based, human; settings: 14 days
Text: (§3) Prostate cancer is one of the most common cancers in European and American males and has a high mortality rate (Landis et al, 1998; Rosenthal, 1998). Early disease is managed conservatively in Europe although in selected patients surgery is curative. In advanced disease, androgen ablation can produce symptomatic improvement, but the tumour often re-emerges in an androgen- independent and incurable form. One proposed treatment for androgen-independent prostate carcinoma is differentiation ther- apy, in which agents such as all-trans-retinoic acid (ATRA), 9-cis- retinoic acid and 1, 25-dihydroxyvitamin D3 (D3 ) are used to induce growth arrest, differentiation and sometimes apoptosis of the tumour cells (Liang et al, 1999; de Vos et al, 1997; Skowronski et al, 1994; Hedlund et al, 1997). ATRA and synthetic analogues exert their biological effects by binding to two families of retinoid receptors, the RARs (RAR, RAR and RAR) and the RXRs (RXR, RXR and RXR). These are ligand-dependent transcription factors of the steroid/thyroid hormone nuclear receptor superfamily (Chambon 1994; Boehm et al, 1995). Activated RARs bind to retinoic acid-responsive elements (RAREs) in the promoters of genes and thus regulate gene expression. They also antagonize the activity of the tran- scription factor AP1 and thereby down-regulate the expression of some AP1-activated genes (Nagpal et al, 1995). One approach to unravelling the contributions of RAR sub-types to these actions has been the development of synthetic retinoids with selective activities at individual RARs and RXRs. For example, the diaryl- acetylenic retinoids allow separation of transactivation and AP1 antagonism functions at RAR (Nagpal et al, 1995). Recently, compounds that are selective for particular RAR sub-types have been synthesized: these include both agonists and antagonists (Chandraratna, 1995; Teng et al, 1999; Johnson et al, 1999). The functional selectivity of these compounds may open the way to achieving differentiation or apoptosis of tumour cells with minimal systemic side effects (Chandraratna, 1995). […]

[2] = tested on: FBS-grown LNCaP, DU145 and PC3 cells; experiment: Plate colony formation assay, stated over the three FBS-grown lines; format: cell-based, human; settings: 100 nM
Text: as §1

[3] = tested on: LNCaP, PC3 and DU145 cells; experiment: Plate colony formation assay, stated over the three serum-free grown lines; format: cell-based, human; settings: for IC50: stated over all three serum-free grown lines, read-out: concentration inhibiting colony formation by 50% (IC50)
Text: as §2

PC3 ITS+ cells = experiment: Plate colony formation assay, serum-free (ITS+)-grown PC3; format: cell-based, human; settings: 14 days
Text: as §3

HL60 cells [4] = experiment: Clonal growth of single serum-free grown HL60 cells in microtitre wells; format: cell-based, human; settings: 100 nM
Text: as §2

RARγ [5] = biological target: T1, RARγ (Homo sapiens, UniProt P13631); experiment: Binding to baculovirus-expressed RARγ; set-up: made in house; settings: baculovirus-expressed receptor
T1 sequence (P13631 1-454): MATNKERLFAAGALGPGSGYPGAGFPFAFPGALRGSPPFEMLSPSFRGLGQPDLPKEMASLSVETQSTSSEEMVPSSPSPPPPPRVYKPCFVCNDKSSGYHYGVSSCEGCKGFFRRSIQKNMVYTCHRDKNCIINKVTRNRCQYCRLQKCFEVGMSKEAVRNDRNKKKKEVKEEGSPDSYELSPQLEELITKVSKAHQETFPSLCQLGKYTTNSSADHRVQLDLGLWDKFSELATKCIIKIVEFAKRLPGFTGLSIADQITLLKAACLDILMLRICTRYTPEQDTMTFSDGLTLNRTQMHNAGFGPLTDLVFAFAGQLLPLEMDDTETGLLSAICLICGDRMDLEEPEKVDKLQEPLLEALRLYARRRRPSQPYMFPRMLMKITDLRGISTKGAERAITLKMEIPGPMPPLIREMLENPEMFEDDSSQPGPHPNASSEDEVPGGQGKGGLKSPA
Text: as §2

RARβ [6] = biological target: T2, RARβ (Homo sapiens, UniProt P10826); experiment: Binding to baculovirus-expressed RARβ; set-up: made in house; settings: baculovirus-expressed receptor
T2 sequence (P10826 1-455): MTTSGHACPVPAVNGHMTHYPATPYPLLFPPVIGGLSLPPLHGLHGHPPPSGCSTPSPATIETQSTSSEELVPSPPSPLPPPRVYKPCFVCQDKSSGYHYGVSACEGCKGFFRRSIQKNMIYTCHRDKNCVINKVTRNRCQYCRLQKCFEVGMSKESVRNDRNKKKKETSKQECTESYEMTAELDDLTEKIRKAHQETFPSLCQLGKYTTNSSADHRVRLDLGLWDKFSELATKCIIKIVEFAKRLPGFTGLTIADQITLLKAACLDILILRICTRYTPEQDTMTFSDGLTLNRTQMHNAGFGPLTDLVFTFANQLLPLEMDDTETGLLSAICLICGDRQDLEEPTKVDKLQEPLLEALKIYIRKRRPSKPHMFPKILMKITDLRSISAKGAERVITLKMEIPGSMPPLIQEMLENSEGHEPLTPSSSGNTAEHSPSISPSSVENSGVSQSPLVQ
Text: as §2

RARα [7] = biological target: T3, RARα (Homo sapiens, UniProt P10276); experiment: Binding to baculovirus-expressed RARα; set-up: made in house; settings: baculovirus-expressed receptor
T3 sequence (P10276 1-462): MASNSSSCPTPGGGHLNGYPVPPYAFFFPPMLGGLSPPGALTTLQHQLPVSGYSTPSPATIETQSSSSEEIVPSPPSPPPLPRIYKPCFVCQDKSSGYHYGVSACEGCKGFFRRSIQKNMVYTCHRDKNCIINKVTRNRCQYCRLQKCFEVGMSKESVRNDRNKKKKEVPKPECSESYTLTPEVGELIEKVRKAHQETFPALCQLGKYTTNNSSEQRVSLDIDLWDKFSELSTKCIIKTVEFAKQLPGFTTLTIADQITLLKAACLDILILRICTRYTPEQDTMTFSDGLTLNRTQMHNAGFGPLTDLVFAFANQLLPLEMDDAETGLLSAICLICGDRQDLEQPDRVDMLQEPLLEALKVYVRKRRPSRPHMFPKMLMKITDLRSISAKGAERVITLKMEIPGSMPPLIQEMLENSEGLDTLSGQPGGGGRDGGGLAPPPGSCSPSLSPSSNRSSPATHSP
Text: as §2

RARα [8] = biological target: T3, RARα; experiment: Transactivation by RARα in doubly transfected CV-1 cells (MTV-TREp-LUC reporter); format: cell-based; set-up: expressed in transfected cells; host or cells: CV-1 cells
Text: as §3

RARβ [9] = biological target: T2, RARβ; experiment: Transactivation by RARβ in doubly transfected CV-1 cells (MTV-TREp-LUC reporter); format: cell-based; set-up: expressed in transfected cells; host or cells: CV-1 cells; key to EC50 transactivation RARβ: NA: inactive; WA: weak partial agonist
Text: as §3

RARγ [10] = biological target: T1, RARγ; experiment: Transactivation by RARγ in doubly transfected CV-1 cells (MTV-TREp-LUC reporter); format: cell-based; set-up: expressed in transfected cells; host or cells: CV-1 cells; key to EC50 transactivation RARγ: NA: inactive; WA: weak partial agonist
Text: as §1

Compound: Cc1ccc(C2=CC(C)(C)Oc3c(Br)cc(C(=O)Nc4ccc(C(=O)O)c(F)c4)cc32)cc1 [AGN194301]
- percentage of mature cells (HL60 cells [1]): 1%
- IC50 (LNCaP ITS+ cells): 203 nM
- IC50 (DU145 ITS+ cells): 201 nM
- inhibition of colony formation [2]: 0-19%
- inhibition of colony formation ([3]; 100 nM, three lines in ITS+ medium): 42-74%
- IC50 [3]: ~200 nM
- IC50 (PC3 ITS+ cells): 235 nM
- viability of the single cells (HL60 cells [4]): > 95%
- effect on clonal growth of HL60 cells (HL60 cells [4]; 4 days): did not adversely affect
- number of viable cells at day 4 (HL60 cells [4]; control 18): 22
- cloning efficiency (HL60 cells [4]; same as untreated): 90-93%
- Kd (RARγ [5]): 7250 nM
- Kd (RARβ [6]): 320 nM
- Kd (RARα [7]): 3 nM

Compound: Cc1ccc(C2=CCC(C)(C)c3ccc(N=Nc4ccc(C(=O)O)cc4F)cc32)cc1 [AGN194431]
- IC50 (LNCaP ITS+ cells): 99 nM
- IC50 (DU145 ITS+ cells): 88 nM
- IC50 [3]: ~100 nM
- IC50 (PC3 ITS+ cells): 104 nM
- Kd (RARγ [5]): 70 nM
- Kd (RARβ [6]): 6 nM
- Kd (RARα [7]): 300 nM

Compound: CC(C)N1CCC(C)(C)c2cc(C(=O)Nc3ccc(C(=O)O)c(F)c3)c(O)cc21 [AGN195153]
- EC50 (RARα [8]): 130 nM
- EC50 transactivation RARβ (RARβ [9]): WA
- EC50 transactivation RARγ (RARγ [10]): WA
- Kd (RARγ [5]): > 5000 nM
- Kd (RARβ [6]): > 5000 nM
- Kd (RARα [7]): 40 nM
